Reference: US20230398130A1, “METHODS AND COMPOSITIONS FOR DIFFERENTIATING STEM CELLS” (Massachusetts Institute of Technology, priority 2020, published 2023)

Tests used:
ISC-enriched organoids [1] = test: Primary screen, 384-well 2.5-D organoid differentiation (ENR+CD, 6 days): carbachol-induced lysozyme secretion (LYZ.S); format: cell-based, murine; settings: for Dose.FC.LYZ.S (log 2 fold change, carbachol-induced lysozyme secretion): vs plate median; for Dose.FC.LYZ.S: FC vs plate median; for Z.LYZ.S: standard z score; for SSMD.LYZ.S: strictly standardized mean difference
Text: (§1) High-throughput screening.

ISC-enriched organoids [2] = test: Primary screen, 384-well 2.5-D organoid differentiation (ENR+CD, 6 days, Target Selective Inhibitor Library, vs whole-plate median): ATP (CellTiter-Glo 3D, CTG); settings: for Dose.FC.CTG (log 2 fold change, ATP): vs plate median; for Dose.FC.CTG: FC vs plate median; for SSMD.CTG: strictly standardized mean difference
ISC-enriched organoids [3] = test: Primary screen, 384-well 2.5-D organoid differentiation (ENR+CD, 6 days): basal lysozyme secretion (LYZ.NS); format: cell-based, murine; settings: for Dose.FC.LYZ.NS (log 2 fold change, basal lysozyme secretion): vs plate median; for Dose.FC.LYZ.NS: FC vs plate median; for SSMD.LYZ.NS: strictly standardized mean difference
Text: as §1

[4] = Dose 0.08 uM, standard z score of FC
[5] = Dose 0.40 uM, standard z score of FC
[6] = Dose 2.00 uM, standard z score of FC
[7] = Dose 10.00 uM, standard z score of FC
[8] = primary screen, 1st of the 4 dose lines of the treatment (dose not given)
[9] = primary screen, 2nd of the 4 dose lines of the treatment (dose not given)
[10] = primary screen, 3rd of the 4 dose lines of the treatment (dose not given)
[11] = primary screen, 4th of the 4 dose lines of the treatment (dose not given)
[12] = Dose 0.08 uM, primary screen, standard z score
[13] = Dose 0.40 uM, primary screen, standard z score
[14] = Dose 2.00 uM, primary screen, standard z score
[15] = Dose 10.00 uM, primary screen, standard z score

In the case of `N#C[C@@H]1CCCN1C(=O)CNC12CC3CC(CC(O)(C3)C1)C2` [Vildagliptin (LAF-237)], the “Dose.FC.LYZ.S (log 2 fold change, carbachol-induced lysozyme secretion)” value (ISC-enriched organoids [1]; dose 0.08 uM) was 0.099, the “Dose.FC.LYZ.S (log 2 fold change, carbachol-induced lysozyme secretion)” value (ISC-enriched organoids [1]; dose 0.40 uM) was 0.113 and the “Dose.FC.LYZ.S (log 2 fold change, carbachol-induced lysozyme secretion)” value (ISC-enriched organoids [1]; dose 2.00 uM) was 0.038. The “Dose.FC.LYZ.S (log 2 fold change, carbachol-induced lysozyme secretion)” value (ISC-enriched organoids [1]; dose 10.00 uM) was 0.013, the “Z.CTG (standard z score)” value (ISC-enriched organoids [2]; dose 0.08 uM) was 0.553 and the “Dose.FC.CTG (log 2 fold change, ATP)” value (ISC-enriched organoids [2]; dose 0.08 uM) was 0.232. For the same molecule, the “Z.CTG (standard z score)” value (ISC-enriched organoids [2]; dose 0.40 uM) was 0.547, the “Dose.FC.CTG (log 2 fold change, ATP)” value (ISC-enriched organoids [2]; dose 0.40 uM) was 0.229 and the “Z.CTG (standard z score)” value (ISC-enriched organoids [2]; dose 2.00 uM) was 0.358. For the same molecule, the “Dose.FC.CTG (log 2 fold change, ATP)” value (ISC-enriched organoids [2]; dose 2.00 uM) was 0.150, the “Z.CTG (standard z score)” value (ISC-enriched organoids [2]; dose 10.00 uM) was 0.811 and the “Dose.FC.CTG (log 2 fold change, ATP)” value (ISC-enriched organoids [2]; dose 10.00 uM) was 0.339. For the same molecule, the “Z.LYZ.NS (standard z score)” value (ISC-enriched organoids [3]; dose 0.08 uM) was 1.285, the “Dose.FC.LYZ.NS (log 2 fold change, basal lysozyme secretion)” value (ISC-enriched organoids [3]; dose 0.08 uM) was 0.148 and the “Z.LYZ.NS (standard z score)” value (ISC-enriched organoids [3]; dose 0.40 uM) was 2.004. For the same molecule, the “Dose.FC.LYZ.NS (log 2 fold change, basal lysozyme secretion)” value (ISC-enriched organoids [3]; dose 0.40 uM) was 0.230, the “Z.LYZ.NS (standard z score)” value (ISC-enriched organoids [3]; dose 2.00 uM) was 1.478 and the “Dose.FC.LYZ.NS (log 2 fold change, basal lysozyme secretion)” value (ISC-enriched organoids [3]; dose 2.00 uM) was 0.170. For the same molecule, the “Z.LYZ.NS (standard z score)” value (ISC-enriched organoids [3]; dose 10.00 uM) was 0.846 and the “Dose.FC.LYZ.NS (log 2 fold change, basal lysozyme secretion)” value (ISC-enriched organoids [3]; dose 10.00 uM) was 0.097.

Molecule `C1=N/C2=N/c3ccc(OCCN4CCCC4)c(c3)COC/C=C/COCc3cccc(c3)C(=C1)N2` [Pacritinib (SB1518)] has a Dose.FC.LYZ.S (ISC-enriched organoids [1]; Dose 0.08 uM, primary screen) of 0.066 log 2 fold change, a Dose.FC.LYZ.S (ISC-enriched organoids [1]; Dose 0.40 uM, primary screen) of −0.032 log 2 fold change and a Dose.FC.LYZ.S (ISC-enriched organoids [1]; Dose 2.00 uM, primary screen) of −0.304 log 2 fold change. The Dose.FC.LYZ.S (ISC-enriched organoids [1]; Dose 10.00 uM, primary screen) was −0.419 log 2 fold change, the Dose.FC.CTG (ISC-enriched organoids [2]; Dose 0.08 uM, primary screen) was −0.006 log 2 fold change and the Z.CTG (ISC-enriched organoids [2]; [4]) was −0.014. It also gave a Dose.FC.CTG (ISC-enriched organoids [2]; Dose 0.40 uM, primary screen) of 0.099 log 2 fold change, a Z.CTG (ISC-enriched organoids [2]; [5]) of 0.236 and a Dose.FC.CTG (ISC-enriched organoids [2]; Dose 2.00 uM, primary screen) of −0.235 log 2 fold change. The Z.CTG (ISC-enriched organoids [2]; [6]) was −0.560, the Dose.FC.CTG (ISC-enriched organoids [2]; Dose 10.00 uM, primary screen) was −1.276 log 2 fold change and the Z.CTG (ISC-enriched organoids [2]; [7]) was −3.047. For the same molecule, the Dose.FC.LYZ.NS (ISC-enriched organoids [3]; Dose 0.08 uM, primary screen) was 0.091 log 2 fold change, the Z.LYZ.NS (ISC-enriched organoids [3]; [4]) was 0.795 and the Dose.FC.LYZ.NS (ISC-enriched organoids [3]; Dose 0.40 uM, primary screen) was −0.034 log 2 fold change. The Z.LYZ.NS (ISC-enriched organoids [3]; [5]) was −0.299, the Dose.FC.LYZ.NS (ISC-enriched organoids [3]; Dose 2.00 uM, primary screen) was −0.219 log 2 fold change and the Z.LYZ.NS (ISC-enriched organoids [3]; [6]) was −1.908. It also gave a Dose.FC.LYZ.NS (ISC-enriched organoids [3]; Dose 10.00 uM, primary screen) of −0.275 log 2 fold change and a Z.LYZ.NS (ISC-enriched organoids [3]; [7]) of −2.391.

`O=C(O)CNC(=O)c1c(O)c2ccccc2n(Cc2ccccc2)c1=O` [IOX2] was tested, and the Dose.FC.LYZ.S (ISC-enriched organoids [1]; Dose 0.08 uM, primary screen) was 0.047 log 2 fold change, the Dose.FC.LYZ.S (ISC-enriched organoids [1]; Dose 0.40 uM, primary screen) was 0.071 log 2 fold change and the Dose.FC.LYZ.S (ISC-enriched organoids [1]; Dose 2.00 uM, primary screen) was 0.001 log 2 fold change. For the same molecule, the Dose.FC.LYZ.S (ISC-enriched organoids [1]; Dose 10.00 uM, primary screen) was −0.049 log 2 fold change, the Z.LYZ.S (ISC-enriched organoids [1]; [8]) was 0.305 and the Z.LYZ.S (ISC-enriched organoids [1]; [9]) was 0.456. It also gave a Z.LYZ.S (ISC-enriched organoids [1]; [10]) of 0.005, a Z.LYZ.S (ISC-enriched organoids [1]; [11]) of −0.314 and an SSMD.LYZ.S (ISC-enriched organoids [1]; [8]) of 0.359. For the same molecule, the SSMD.LYZ.S (ISC-enriched organoids [1]; [9]) was 0.428, the SSMD.LYZ.S (ISC-enriched organoids [1]; [10]) was 0.006 and the SSMD.LYZ.S (ISC-enriched organoids [1]; [11]) was −0.298. The Dose.FC.CTG (ISC-enriched organoids [2]; Dose 0.08 uM, primary screen) was 0.149 log 2 fold change, the Z.CTG (ISC-enriched organoids [2]; [12]) was 0.356 and the Dose.FC.CTG (ISC-enriched organoids [2]; Dose 0.40 uM, primary screen) was 0.078 log 2 fold change. It also gave a Z.CTG (ISC-enriched organoids [2]; [13]) of 0.185, a Dose.FC.CTG (ISC-enriched organoids [2]; Dose 2.00 uM, primary screen) of 0.097 log 2 fold change and a Z.CTG (ISC-enriched organoids [2]; [14]) of 0.232. For the same molecule, the Dose.FC.CTG (ISC-enriched organoids [2]; Dose 10.00 uM, primary screen) was 0.001 log 2 fold change, the Z.CTG (ISC-enriched organoids [2]; [15]) was 0.002 and the SSMD.CTG (ISC-enriched organoids [2]; [8]) was 0.501. It also gave an SSMD.CTG (ISC-enriched organoids [2]; [9]) of 0.264, an SSMD.CTG (ISC-enriched organoids [2]; [10]) of 0.287 and an SSMD.CTG (ISC-enriched organoids [2]; [11]) of 0.003. It also gave a Dose.FC.LYZ.NS (ISC-enriched organoids [3]; Dose 0.08 uM, primary screen) of 0.029 log 2 fold change, a Z.LYZ.NS (ISC-enriched organoids [3]; [12]) of 0.254 and a Dose.FC.LYZ.NS (ISC-enriched organoids [3]; Dose 0.40 uM, primary screen) of 0.028 log 2 fold change. The Z.LYZ.NS (ISC-enriched organoids [3]; [13]) was 0.246, the Dose.FC.LYZ.NS (ISC-enriched organoids [3]; Dose 2.00 uM, primary screen) was 0.043 log 2 fold change and the Z.LYZ.NS (ISC-enriched organoids [3]; [14]) was 0.376. The Dose.FC.LYZ.NS (ISC-enriched organoids [3]; Dose 10.00 uM, primary screen) was −0.045 log 2 fold change, the Z.LYZ.NS (ISC-enriched organoids [3]; [15]) was −0.388 and the SSMD.LYZ.NS (ISC-enriched organoids [3]; [8]) was 0.296. It also gave an SSMD.LYZ.NS (ISC-enriched organoids [3]; [9]) of 0.182, an SSMD.LYZ.NS (ISC-enriched organoids [3]; [10]) of 0.408 and an SSMD.LYZ.NS (ISC-enriched organoids [3]; [11]) of −0.420.

`CC1=C(C(=O)OC2CCCCC2)C(c2ccc([N+](=O)[O-])cc2)C2=C(CC(C)(C)CC2=O)N1` (stereo not drawn) [FLI-06] was tested, and the Dose.FC.LYZ.S (ISC-enriched organoids [1]; Dose 0.08 uM, ENR+CD, 6 days) was 0.079 log 2 fold change, the Dose.FC.LYZ.S (ISC-enriched organoids [1]; Dose 0.40 uM, ENR+CD, 6 days) was 0.010 log 2 fold change and the Dose.FC.LYZ.S (ISC-enriched organoids [1]; Dose 2.00 uM, ENR+CD, 6 days) was −0.077 log 2 fold change. It also gave a Dose.FC.LYZ.S (ISC-enriched organoids [1]; Dose 10.00 uM, ENR+CD, 6 days) of −0.170 log 2 fold change, a Dose.FC.CTG (ISC-enriched organoids [2]; Dose 0.08 uM, ENR+CD, 6 days) of 0.089 log 2 fold change and a Z.CTG (ISC-enriched organoids [2]; [4]) of 0.213. It also gave a Dose.FC.CTG (ISC-enriched organoids [2]; Dose 0.40 uM, ENR+CD, 6 days) of 0.095 log 2 fold change, a Z.CTG (ISC-enriched organoids [2]; [5]) of 0.226 and a Dose.FC.CTG (ISC-enriched organoids [2]; Dose 2.00 uM, ENR+CD, 6 days) of 0.076 log 2 fold change. It also gave a Z.CTG (ISC-enriched organoids [2]; [6]) of 0.182, a Dose.FC.CTG (ISC-enriched organoids [2]; Dose 10.00 uM, ENR+CD, 6 days) of −0.343 log 2 fold change and a Z.CTG (ISC-enriched organoids [2]; [7]) of −0.819. It also gave a Dose.FC.LYZ.NS (ISC-enriched organoids [3]; Dose 0.08 uM, ENR+CD, 6 days) of 0.050 log 2 fold change, a Z.LYZ.NS (ISC-enriched organoids [3]; [4]) of 0.439 and a Dose.FC.LYZ.NS (ISC-enriched organoids [3]; Dose 0.40 uM, ENR+CD, 6 days) of −0.026 log 2 fold change. It also gave a Z.LYZ.NS (ISC-enriched organoids [3]; [5]) of −0.230, a Dose.FC.LYZ.NS (ISC-enriched organoids [3]; Dose 2.00 uM, ENR+CD, 6 days) of −0.054 log 2 fold change and a Z.LYZ.NS (ISC-enriched organoids [3]; [6]) of −0.466. It also gave a Dose.FC.LYZ.NS (ISC-enriched organoids [3]; Dose 10.00 uM, ENR+CD, 6 days) of −0.140 log 2 fold change and a Z.LYZ.NS (ISC-enriched organoids [3]; [7]) of −1.216.
